Measured values from patent publication US12528814B2, “Bifunctional degraders of interleukin-1 receptor-associated kinases and therapeutic use thereof” (NURIX THERAPEUTICS, INC., priority 2020, dated 2026).
Like-named read-outs stand apart in the source and are kept apart here.

Assays:
IRAK4 [1] = biological target: T1, IRAK4 (Homo sapiens (Human), UniProt Q9NWZ3); assay: IRAK4 Biochemical HTRF Kinase Assay; conditions: read-out: IRAK4 HTRF biochemical: IC50
Outline: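 HTRF KinEASE STK S1 format measuring IRAK4 phosphorylation of biotinylated peptide; reaction solution of 5 μM STK-S1, 10 mM ATP, 10 mM MgCl2 added (stock, to 10 μl final), 90 min at ambient temperature, detection 60 min. IC50 from sixteen-point duplicate curves by non-linear regression.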
Target sequence in this assay (Q9NWZ3 whole entry, species assumed): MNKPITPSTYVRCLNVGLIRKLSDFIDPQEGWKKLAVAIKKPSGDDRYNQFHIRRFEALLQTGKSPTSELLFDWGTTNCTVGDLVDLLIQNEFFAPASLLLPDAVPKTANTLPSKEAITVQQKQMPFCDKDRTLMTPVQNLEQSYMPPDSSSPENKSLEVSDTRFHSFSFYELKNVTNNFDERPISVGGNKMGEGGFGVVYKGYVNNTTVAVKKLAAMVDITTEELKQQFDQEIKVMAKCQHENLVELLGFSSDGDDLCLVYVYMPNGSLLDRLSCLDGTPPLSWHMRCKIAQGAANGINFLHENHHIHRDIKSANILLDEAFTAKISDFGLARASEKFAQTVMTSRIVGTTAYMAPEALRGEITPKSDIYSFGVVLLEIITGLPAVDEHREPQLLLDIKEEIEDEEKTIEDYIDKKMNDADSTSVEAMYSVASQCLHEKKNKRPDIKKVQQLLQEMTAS

IRAK4 [2] = biological target: T1, IRAK4; assay: IRAK4 Degradation HiBiT Assay; conditions: HiBiT-tagged Jurkat cells, 4 hrs; for Dmax: Jurkat; for DC50: read-out: Cellular IRAK4 HiBiT: DC50
Target sequence in this assay (Q9NWZ3 whole entry): as the sequence (Q9NWZ3 whole entry, species assumed) above

[3] = read-out: Cellular IRAK4 HiBiT: Dmax, Table 5, multiple runs
[4] = read-out: Cellular IRAK4 HiBiT: Dmax, Table 4

Compound | IC50 (IRAK4 [1]; Table 5, multiple runs) | Dmax (IRAK4 [2]; [3]) | DC50 (IRAK4 [2]; Table 5, multiple runs) | IC50 (IRAK4 [1]; Table 4) | Dmax (IRAK4 [2]; [4]) | DC50 (IRAK4 [2]; Table 4)
CNc1cc(-c2ccc3cc(C#N)cnn23)ncc1-c1nnc(C23CCC(NC(=O)CCCCCC(=O)N[C@H](C(=O)N4C[C@H](O)C[C@H]4C(=O)N[C@@H](C)c4ccc(-c5scnc5C)cc4)C(C)(C)C)(CC2)CC3)s1 [Example 131, N1-(4-(5-(6-(3-cyanopyrrolo[1,2-b]pyridazin-7-yl)-4-(methylamino)pyridin-3-yl)-1,3,4-thiadiazol-2-yl)bicyclo[2.2.2]octan-1-yl)-N7-((S)-1-((2S,4R)-4-hydroxy-2-(((S)-1-(4-(4-methylthiazol-5-yl)phenyl)ethyl)carbamoyl)pyrrolidin-1-yl)-3,3-dimethyl-1-oxobutan-2-yl)heptanediamide] | 2.1 nM | 109% | 124 nM | – | – | –
CC(C)Nc1cc(-c2ccc3cc(C#N)cnn23)ncc1-c1nnc(N2CCN(CCC3CCN(c4ccc5c(c4)C(=O)N(C4CCC(=O)NC4=O)C5=O)CC3)CC2)s1 (stereo not drawn) [Example 16, 7-(5-(5-(4-(2-(1-(2-(2,6-dioxopiperidin-3-yl)-1,3-dioxoisoindolin-5-yl)piperidin-4-yl)ethyl)piperazin-1-yl)-1,3,4-thiadiazol-2-yl)-4-(isopropylamino)pyridin-2-yl)pyrrolo[1,2-b]pyridazine-3-carbonitrile] | 1.7 nM | 53% | 190 nM | 1.7 nM | 62% | 127 nM
CC(C)Nc1cc(-c2ccc3cc(C#N)cnn23)ncc1-c1nnc(N2CCN(C(=O)CCOCCNc3cccc4c3C(=O)N(C3CCC(=O)NC3=O)C4=O)CC2)s1 (stereo not drawn) [Example 7, 7-(5-(5-(4-(3-(2-((2-(2,6-dioxopiperidin-3-yl)-1,3-dioxoisoindolin-4-yl)amino)ethoxy)propanoyl)piperazin-1-yl)-1,3,4-thiadiazol-2-yl)-4-(isopropylamino)pyridin-2-yl)pyrrolo[1,2-b]pyridazine-3-carbonitrile] | 9.2 nM | 39% | 229 nM | 9.2 nM | 39% | 228 nM
CNc1cc(-c2ccc3cc(C#N)cnn23)ncc1-c1nnc(N2CC3(CCN(C(=O)COc4cc(-c5scnc5C)ccc4CNC(=O)[C@@H]4C[C@@H](O)CN4C(=O)[C@@H](NC(=O)C4(F)CC4)C(C)(C)C)CC3)C2)s1 [Example 179, (2S,4R)—N-(2-(2-(2-(5-(6-(3-cyanopyrrolo[1,2-b]pyridazin-7-yl)-4-(methylamino)pyridin-3-yl)-1,3,4-thiadiazol-2-yl)-2,7-diazaspiro[3.5]nonan-7-yl)-2-oxoethoxy)-4-(4-methylthiazol-5-yl)benzyl)-1-((S)-2-(1-fluorocyclopropane-1-carboxamido)-3,3-dimethylbutanoyl)-4-hydroxypyrrolidine-2-carboxamide] | 0.7 nM | 85% | 57 nM | – | – | –
CNc1cc(-c2ccc3cc(C#N)cnn23)ncc1-c1nnc([C@H]2CC[C@H](NC(=O)CCCC(=O)N[C@H](C(=O)N3C[C@H](O)C[C@H]3C(=O)NCc3ccc(-c4scnc4C)cc3)C(C)(C)C)CC2)s1 [Example 59, N1-((1r,4S)-4-(5-(6-(3-cyanopyrrolo[1,2-b]pyridazin-7-yl)-4-(methylamino)pyridin-3-yl)-1,3,4-thiadiazol-2-yl)cyclohexyl)-N5-((S)-1-((2S,4R)-4-hydroxy-2-((4-(4-methylthiazol-5-yl)benzyl)carbamoyl)pyrrolidin-1-yl)-3,3-dimethyl-1-oxobutan-2-yl)glutaramide] | 0.9 nM | 101% | 160 nM | 0.93 nM | 89% | 163 nM
CNc1cc(-c2ccc3cc(C#N)cnn23)ncc1-c1nnc([C@H]2CC[C@@H](NC(=O)C3CCN(c4cccc5c4C(=O)N(C4CCC(=O)NC4=O)C5=O)CC3)CC2)s1 (stereo partly drawn) [Example 135, N-((1s,4s)-4-(5-(6-(3-cyanopyrrolo[1,2-b]pyridazin-7-yl)-4-(methylamino)pyridin-3-yl)-1,3,4-thiadiazol-2-yl)cyclohexyl)-1-(2-(2,6-dioxopiperidin-3-yl)-1,3-dioxoisoindolin-4-yl)piperidine-4-carboxamide] | 1 nM | 46% | 774 nM | – | – | –
CNc1cc(-c2ccc3cc(C#N)cnn23)ncc1-c1nnc([C@H]2CC[C@H](N(C)CC3CCN(c4ccc5c(=O)n(C6CCC(=O)NC6=O)ccc5c4)CC3)CC2)s1 (stereo partly drawn) [Example 170, 7-(5-(5-((1r,4r)-4-(((1-(2-(2,6-dioxopiperidin-3-yl)-1-oxo-1,2-dihydroisoquinolin-6-yl)piperidin-4-yl)methyl)(methyl)amino)cyclohexyl)-1,3,4-thiadiazol-2-yl)-4-(methylamino)pyridin-2-yl)pyrrolo[1,2-b]pyridazine-3-carbonitrile] | 0.5 nM | 103% | 29.3 nM | – | – | –
CNc1cc(-c2ccc3cc(C#N)cnn23)ncc1-c1nnc(N2CCN(C[C@@H]3CCN(c4ccc5c(c4)n(C)c(=O)n5C4CCC(=O)NC4=O)C3)CC2)s1 (stereo partly drawn) [Example 92, 7-(5-(5-(4-(((3S)-1-(1-(2,6-dioxopiperidin-3-yl)-3-methyl-2-oxo-2,3-dihydro-1H-benzo[d]imidazol-5-yl)pyrrolidin-3-yl)methyl)piperazin-1-yl)-1,3,4-thiadiazol-2-yl)-4-(methylamino)pyridin-2-yl)pyrrolo[1,2-b]pyridazine-3-carbonitrile] | 1 nM | – | > 970 nM | – | – | –
CC(C)Nc1cc(-c2ccc3cc(C#N)cnn23)ncc1-c1nnc(N2CCN(C(=O)CCCCCCCNc3cccc4c3C(=O)N(C3CCC(=O)NC3=O)C4=O)CC2)s1 (stereo not drawn) [Example 8, 7-(5-(5-(4-(8-((2-(2,6-dioxopiperidin-3-yl)-1,3-dioxoisoindolin-4-yl)amino)octanoyl)piperazin-1-yl)-1,3,4-thiadiazol-2-yl)-4-(isopropylamino)pyridin-2-yl)pyrrolo[1,2-b]pyridazine-3-carbonitrile] | 0.8 nM | 100% | 53.8 nM | 0.8 nM | 100% | 53.8 nM
CNc1cc(-c2ccc3cc(C#N)cnn23)ncc1-c1nnc(N2CCN(C3CCN(C(=O)c4ccc(C(=O)NC5CCC(=O)NC5=O)cc4)CC3)CC2)s1 (stereo not drawn) [Example 132, 4-(4-(4-(5-(6-(3-cyanopyrrolo[1,2-b]pyridazin-7-yl)-4-(methylamino)pyridin-3-yl)-1,3,4-thiadiazol-2-yl)piperazin-1-yl)piperidine-1-carbonyl)-N-(2,6-dioxopiperidin-3-yl)benzamide] | 0.6 nM | – | > 9980 nM | – | – | –
Cc1ncsc1-c1ccc(CNC(=O)[C@@H]2C[C@@H](O)CN2C(=O)[C@@H](NC(=O)C2(F)CC2)C(C)(C)C)c(OCCCC(=O)N2CCN(c3nnc(-c4cnc(-c5ccc6cc(C#N)cnn56)cc4NC(C)C)s3)CC2)c1 [Example 79, (2S,4R)—N-(2-(4-(4-(5-(6-(3-cyanopyrrolo[1,2-b]pyridazin-7-yl)-4-(isopropylamino)pyridin-3-yl)-1,3,4-thiadiazol-2-yl)piperazin-1-yl)-4-oxobutoxy)-4-(4-methylthiazol-5-yl)benzyl)-1-((S)-2-(1-fluorocyclopropane-1-carboxamido)-3,3-dimethylbutanoyl)-4-hydroxypyrrolidine-2-carboxamide] | 9.8 nM | 113% | 137 nM | – | – | –
CC(C)Nc1cc(-c2ccc3cc(C#N)cnn23)ncc1-c1nnc(N2CCN(C(=O)C3CCN(CC4CCN(c5ccc6c(=O)n(C7CCC(=O)NC7=O)ccc6c5)CC4)CC3)CC2)s1 (stereo not drawn) [Example 21, 7-(5-(5-(4-(1-((1-(2-(2,6-dioxopiperidin-3-yl)-1-oxo-1,2-dihydroisoquinolin-6-yl)piperidin-4-yl)methyl)piperidine-4-carbonyl)piperazin-1-yl)-1,3,4-thiadiazol-2-yl)-4-(isopropylamino)pyridin-2-yl)pyrrolo[1,2-b]pyridazine-3-carbonitrile] | 0.5 nM | 101% | 251 nM | 0.5 nM | 103% | 251 nM
CNc1cc(-c2ccc3cc(C#N)cnn23)ncc1-c1nnc(N2CCC(NC[C@@H]3CCN(c4ccc5c(c4)n(C)c(=O)n5C4CCC(=O)NC4=O)C3)CC2)s1 (stereo partly drawn) [Example 93, 7-(5-(5-(4-((((3S)-1-(1-(2,6-dioxopiperidin-3-yl)-3-methyl-2-oxo-2,3-dihydro-1H-benzo[d]imidazol-5-yl)pyrrolidin-3-yl)methyl)amino)piperidin-1-yl)-1,3,4-thiadiazol-2-yl)-4-(methylamino)pyridin-2-yl)pyrrolo[1,2-b]pyridazine-3-carbonitrile] | 0.9 nM | – | > 9980 nM | – | – | –
CN[C@@H](C)C(=O)N[C@H](C(=O)N1CCC[C@H]1c1nc(C(=O)c2cccc(OCCOCCC(=O)N3CCN(c4nnc(-c5cnc(-c6ccc7cc(C#N)cnn67)cc5NC(C)C)s4)CC3)c2)cs1)C1CCCCC1 [Example 50, (S)—N—((S)-2-((S)-2-(4-(3-(2-(3-(4-(5-(6-(3-cyanopyrrolo[1,2-b]pyridazin-7-yl)-4-(isopropylamino)pyridin-3-yl)-1,3,4-thiadiazol-2-yl)piperazin-1-yl)-3-oxopropoxy)ethoxy)benzoyl)thiazol-2-yl)pyrrolidin-1-yl)-1-cyclohexyl-2-oxoethyl)-2-(methylamino)propanamide] | 3.2 nM | 67% | 197 nM | 3.1 nM | 67% | 197 nM
